In assay [1] the test system is HT-29 tumor cells. Kind of assay: Cell growth inhibition assay (CellTiter-Glo), HT-29. Format: cell-based, Human. As to conditions: for IC50: Homo sapiens. On the procedure: (§1) Human breast tumor cells (BT474) were cultured in RPMI (Mediatech […]), containing 10% FBS (JRH Biosciences 12176) and 1% penicillin-streptomycin (Invitrogen 15140). Human head and neck tumor cells (HN5) were cultured in high glucose DMEM (Mediatech 50-013-PB) containing 10% FBS and 1% penicillin-streptomycin. Human colon tumor cells (Colo205) were cultured in RPMI (Mediatech 50-020-PB) containing 10% FBS and 1% penicillin-streptomycin. Human melanoma cancer cells (SK-MEL-28) were cultured in EMEM with nonessential amino acids (Mediatech 50-011-PB) containing 10% FBS, 1% sodium pyruvate (JT Baker 3354-04), and 1% penicillin-streptomycin. Human melanoma cancer cells (A375P F11s) were cultured in RPMI (Mediatech 50-020-PB) containing 10% FBS, 1% sodium pyruvate, and 1% penicillin-streptomycin. Human colon cancer cells (HT-29) were cultured in high glucose DMEM (Mediatech 50-013-PB) containing 10% FBS and 1% penicillin-streptomycin. Human melanoma cancer cells (SK-MEL-3) were cultured in McCoy's 5A (50-025-PB) containing 15% FBS, and 1% penicillin-streptomycin. All cell lines were maintained at 37° C. in a humidified 5% CO2, 95% air incubator. Cells were harvested using trypsin/EDTA (Invitrogen 25200), counted using a haemocytometer, and plated. For 96-well assays (using white full-area NUNC plates cat. #136102), cells were plated in 105 μL at the following densities (cells/well): HNS, 500; Colo 205, 500; SK-MEL-28, 500; A375P F11s, 500; HT-29, 500; SK-MEL-3, 500; and BT474, 3000. For 384-well assays (white full-area NUNC plates, cat. #781080), cells were plated in 48 μL at the following densities (cells/well): HNS, 500; Colo205, 500; SK-MEL-28, 500; A375P F11s, 500; HT-29, 500; SK-MEL-3, 500; and BT474, 2000.
(§2) The next day, compounds were diluted as follow: For 96-well assays, 13.5 μL of compound in DMSO were diluted using nine (9) serial 1:3 dilutions of 4.5 μL in 9 of DMSO. Medium (270 μL/well of RPMI with 10% FBS and 1% penicillin-streptomycin) was added to the plates. Aliquots (7 μL) were added to cells in the final assay giving a final DMSO concentration of 0.2%. For 384-well assays, 15 μL of compound in DMSO were diluted using nine (9) serial 1:3 dilutions of 5 μL in 10 μL of DMSO, followed by a further dilution of 5 μL of compound with 95 μL of medium, of which 2 μL were added to cells in the final assay giving a final DMSO concentration of 0.2%. Cells were incubated at 37° C., 5% CO2 for 3 days.
(§3) Total ATP was measured (as a surrogate estimate of cell number) using CellTiter-Glo® reagent (Promega G7571). Briefly, plates were removed from the incubator and allowed to equilibrate to room temperature for 30 minutes. CellTiter-Glo® (25 μL or 55 μL for 384-well or 96-well assays, respectively) reagent was added to each well and plates were shaken on an orbital plate shaker for 2 minutes. Plates were incubated without shaking for a further 30 minutes and read on an LJL Analyst GT reader in luminometer mode with an integration time of 0.5 seconds per well. Percent inhibition of cell growth was calculated relative to DMSO vehicle-treated control wells. Concentration of compound required to give 50% inhibition of vehicle-treated control cell growth (IC50) was interpolated using a 4-parameter fit for determining IC50 using the following equation: Y=A +((B−A)/(1+((C/X)̂D))) where […].

Assay [2] relates to Colo205 tumor cells. Kind of assay: Cell growth inhibition assay (CellTiter-Glo), Colo205. The settings on record: 3 days incubation. Format: cell-based, Human. In short, it runs like this: (§4)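 Cells plated at 500 cells/well in their growth media, dosed next day with nine-step 1:3 compound dilutions (final DMSO 0.2%), then incubated 3 days at 37° C, 5% CO2. Total ATP read by CellTiter-Glo luminescence as a surrogate for cell number; IC50 interpolated from 4-parameter fit versus DMSO controls.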
On the technique in general: In ATP-based viability assays light output follows the ATP content of the culture.

Assay [3] deals with HN5 tumor cells. Briefly: Cell growth inhibition assay (CellTiter-Glo), HN5. The format is cell-based, Human. The settings on record: 3 days incubation. On the procedure:
as §1, §2, §3

In assay [4] the test system is SK-MEL-28 tumor cells. Kind of assay: Cell growth inhibition assay (CellTiter-Glo), SK-MEL-28. Format: cell-based, Human. The settings on record: 3 days incubation. The method in brief: as §4
The target in assay [5] is B-Raf (Homo sapiens, UniProt P15056). Kind of assay: B-Raf Accelerated MEK ATPase assay (BRAMA), Method A or B. Format: biochemical. In short, it runs like this:
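Activated Raf plus non-phosphorylated MEK drives MEK-mediated ATP hydrolysis; ADP formation coupled via pyruvate kinase/lactate dehydrogenase to NADH oxidation. Method A read kinetically; Method B used 150 nM final MEK and a single end-point read.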

For assay [6], the system named is A375P F11s tumor cells. Kind of assay: Cell growth inhibition assay (CellTiter-Glo), A375P F11s. Format: cell-based, Human. The settings on record: for IC50: Homo sapiens. On the procedure:
as §1, §2, §3

Assay [7] deals with BT474 tumor cells. Briefly: Cell growth inhibition assay (CellTiter-Glo), BT474. The format is cell-based, Human. As to conditions: 3 days incubation. On the procedure:
as §1, §2, §3

Assay [8] deals with SK-MEL-3 tumor cells. Kind of assay: Cell growth inhibition assay (CellTiter-Glo), SK-MEL-3. The format is cell-based, Human. The settings on record: for IC50: Homo sapiens, SK-MEL3. As for the experimental part: as §1, §2, §3
Where [9] appears, read: Method B: final MEK 150 nM, single end point read.

Where a name gives a salt, the structure may show the parent alone.

Chain of B-Raf (P15056 whole entry): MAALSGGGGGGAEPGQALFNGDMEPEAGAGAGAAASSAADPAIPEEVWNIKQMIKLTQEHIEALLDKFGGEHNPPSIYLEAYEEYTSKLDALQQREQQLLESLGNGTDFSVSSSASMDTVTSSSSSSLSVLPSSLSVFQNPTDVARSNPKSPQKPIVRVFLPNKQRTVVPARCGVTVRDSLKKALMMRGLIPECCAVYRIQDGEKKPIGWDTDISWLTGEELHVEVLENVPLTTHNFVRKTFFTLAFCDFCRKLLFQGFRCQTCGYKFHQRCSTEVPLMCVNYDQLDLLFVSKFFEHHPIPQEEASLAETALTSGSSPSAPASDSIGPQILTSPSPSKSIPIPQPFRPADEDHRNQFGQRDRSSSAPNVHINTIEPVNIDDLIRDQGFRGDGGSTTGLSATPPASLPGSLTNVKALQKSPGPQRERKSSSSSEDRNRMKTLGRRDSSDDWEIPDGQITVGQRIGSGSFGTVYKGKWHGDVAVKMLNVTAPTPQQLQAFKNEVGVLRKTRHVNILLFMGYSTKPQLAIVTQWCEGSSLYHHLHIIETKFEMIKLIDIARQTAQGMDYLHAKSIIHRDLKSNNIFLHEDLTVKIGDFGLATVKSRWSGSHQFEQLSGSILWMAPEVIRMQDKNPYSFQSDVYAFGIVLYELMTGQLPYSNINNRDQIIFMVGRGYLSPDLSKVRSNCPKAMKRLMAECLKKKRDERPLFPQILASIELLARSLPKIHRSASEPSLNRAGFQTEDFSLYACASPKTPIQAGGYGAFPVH

As for `CC(C)c1nc(-c2ccc(F)c(NS(=O)(=O)c3ccccc3F)c2)c(-c2ccnc(Nc3ccc(N4CCN(CCS(C)(=O)=O)CC4)c(F)c3)n2)s1` [Example 22, 2-Fluoro-N-{2-fluoro-5-[5-{2-[(3-fluoro-4-}4-[2-(methylsulfonyl)ethyl]-1-piperazinyl}phenyl)amino]-4-pyrimidinyl}-2-(1-methylethyl)-1,3-thiazol-4-yl]phenyl}benzenesulfonamide hydrochloride], the IC50 (commonly the concentration that gives 50% inhibition) is 100 to 1000 nM in assay [1]; less than 100 nM in assay [2] (Homo sapiens, COLO 205, 72 h); greater than 1000 nM in assay [3] (Homo sapiens, 72 h); less than 100 nM in assay [4] (Homo sapiens, SK-MEL-28, 72 h); less than 100 nM in assay [5] (setting [9]); less than 100 nM in assay [6]. Besides, the IC50 in assay [7] (Homo sapiens, BT-474, 72 h) was greater than 1000 nM; in assay [8], 100 to 1000 nM.
With `CCNc1nc(-c2cccc(NS(=O)(=O)c3ccccc3)c2)c(-c2ccnc(Nc3ccc(OCCN4CCCC4)c(F)c3)n2)s1` [Example 1, N-(3-(2-(Ethylamino)-5-{2-[(3-fluoro-4-[[2-(1-pyrrolidinyl)ethyl]oxy}phenyl)amino]-4-pyrimidinyl}-1,3-thiazol-4-yl)phenyl]benzenesulfonamide], the “Activity in HT-29 Tumor Cells” value in assay [1] is “++ (activity of between 100 nM and 1 μM in HT-29 tumor cells)”. In addition, the IC50 was in the range of 100 to 1000 nM in assay [2] (Homo sapiens, COLO 205, 72 h); 100 to 1000 nM in assay [3]; 100 to 1000 nM in assay [4] (Homo sapiens, SK-MEL-28, 72 h); 100 to 1000 nM in assay [5] (Method A); 100 to 1000 nM in assay [7]. Also, the “Activity in A375P F11s Tumor Cells” value in assay [6] is “++ (activity of between 100 nM and 1 μM in A375P F11s tumor cells)”. Moreover, the “Activity in SK-MEL-3 Tumor Cells” value in assay [8] was “++ (activity of between 100 nM and 1 μM in SK-MEL-3 tumor cells)”.
As for `CCNc1nc(-c2cccc(NS(=O)(=O)c3ccccc3)c2)c(-c2ccnc(Nc3ccc(OCCN4CCCC4)c(F)c3)n2)s1` [Example 65], the IC50 in assay [1] is 100 to 1000 nM; in assay [2], 100 to 1000 nM; in assay [3] (Homo sapiens, 72 h), 100 to 1000 nM; in assay [4], 100 to 1000 nM; in assay [5] (Method A), less than 100 nM; in assay [6], 100 to 1000 nM. The IC50 in assay [7] is greater than 1000 nM; in assay [8], 100 to 1000 nM.
Regarding `COCCN1CCN(c2ccc(Nc3nccc(-c4sc(C(C)C)nc4-c4cccc(NS(=O)(=O)c5ccccc5)c4)n3)cn2)CC1` [Example 6, N-[3-(2-(1-Methylethyl)-5-{2-[(6-{4-[2-(methyloxy)ethyl]-1-piperazinyl}-3-pyridinyl)amino]-4-pyrimidinyl}-1,3-thiazol-4-yl)phenyl]benzenesulfonamide], the IC50 in assay [1] is less than 100 nM; in assay [2] (Homo sapiens, COLO 205, 72 h) it was less than 100 nM; in assay [3] (Homo sapiens, 72 h), 100 to 1000 nM; in assay [4] (Homo sapiens, SK-MEL-28, 72 h), less than 100 nM; in assay [5] (Method A), less than 100 nM; in assay [6], less than 100 nM. Moreover, the IC50 in assay [7] (Homo sapiens, BT-474, 72 h) is greater than 1000 nM; in assay [8], less than 100 nM.
As to `CC(C)c1nc(-c2ccnc(NS(=O)(=O)c3c(F)cccc3F)c2)c(-c2ccnc(Nc3ccc(N4CCN(CCF)CC4)c(F)c3)n2)s1` [Example 100], the IC50 in assay [1] was 100 to 1000 nM; in assay [2] (Homo sapiens, COLO 205, 72 h), less than 100 nM; in assay [3] (Homo sapiens, 72 h) it was less than 100 nM; in assay [4] (Homo sapiens, SK-MEL-28, 72 h) it was less than 100 nM; in assay [5] (setting [9]), less than 100 nM; in assay [6], less than 100 nM. Further, the IC50 is greater than 1000 nM in assay [7] (Homo sapiens, BT-474, 72 h) and less than 100 nM in assay [8].

Source of the values: US20110319392A1, “Thiazole Sulfonamide And Oxazole Sulfonamide Kinase Inhibitors” (priority 2009, published 2011).
